Specific activity data for two compounds are collected here from publication PMC8228234, “Identifying a Novel Bile Salt Hydrolase from the Keystone Gut Bacterium Christensenella minuta” (Microorganisms, 2021).

This assay deals with T1, Cm33407BSH (Christensenella minuta, UniProt A0A8F5DVT9).
T1 construct: gene BSH
Briefly: ninhydrin assay of released amino acid. The format is biochemical. Particulars: citrate buffer pH 6.0, 37 °C, 10 mM DTT, 5 mM substrate.

Each structure is given as a SMILES string.

T1 sequence (A0A8F5DVT9 entry or part of it): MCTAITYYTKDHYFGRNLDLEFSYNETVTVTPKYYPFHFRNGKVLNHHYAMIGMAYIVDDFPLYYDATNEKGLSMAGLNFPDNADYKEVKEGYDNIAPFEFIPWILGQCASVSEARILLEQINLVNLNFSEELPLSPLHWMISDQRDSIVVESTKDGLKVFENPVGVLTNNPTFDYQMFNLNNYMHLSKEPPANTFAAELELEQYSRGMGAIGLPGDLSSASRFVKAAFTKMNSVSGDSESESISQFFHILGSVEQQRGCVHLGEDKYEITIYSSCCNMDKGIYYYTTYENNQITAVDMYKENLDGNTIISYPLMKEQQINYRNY

Turning to `C[C@H](CCC(=O)NCC(=O)O)[C@H]1CC[C@H]2[C@@H]3[C@H](O)C[C@@H]4C[C@H](O)CC[C@]4(C)[C@H]3CC[C@]12C` [GCDCA], the specific activity result was “displayed high specific activity values for the glycine conjugates GCA and GCDCA”.
The value for `C[C@H](CCC(=O)NCC(=O)O)[C@H]1CC[C@H]2[C@@H]3[C@H](O)C[C@@H]4C[C@H](O)CC[C@]4(C)[C@H]3C[C@H](O)[C@]12C` [GCA] was “displayed high specific activity values for the glycine conjugates GCA and GCDCA”.
